This passage reports IC50 and Ki results from ChEMBL document CHEMBL1909046, “DrugMatrix in vitro pharmacology data”.

For one data set, the target named is Mu-type opioid receptor (Homo sapiens, UniProt P35372). Put plainly: DRUGMATRIX: Opiate mu (OP3, MOP) radioligand binding (ligand: [3H] Diprenorphine). As to conditions: cho-k1; Not Active = under 50% inhibition at 10 µM. The data set is classed as cell membranes, CHO-K1, Membrane.
A further data set deals with D(3) dopamine receptor (Homo sapiens, UniProt P35462). Put plainly: DRUGMATRIX: Dopamine D3 radioligand binding (ligand: [3H] Spiperone). The data set is classed as cell membranes, CHO, Membrane.
A short description of data set [1]: DRUGMATRIX: Glutamate, Kainate radioligand binding (ligand: [3H] Kainic acid). The format is cell membranes, Rattus norvegicus, Wistar, Brain, Membrane. The note with it: Not Active = under 50% inhibition at 10 µM.
A short description of data set [2]: DRUGMATRIX: Phosphodiesterase PDE3 enzyme inhibition (substrate: [3H]cAMP + cAMP). The note with it: platelet; Not Active = under 50% inhibition at 10 µM. The data set is classed as tissue-based, Homo sapiens.
The target of data set [3] is T1, Receptor-type tyrosine-protein phosphatase C (Homo sapiens, UniProt P08575).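 Further: inhibition of CD45 enzyme activity measured using DiFMUP as substrate; in other assays of this panel Not Active means under 50% inhibition at 10 µM.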
T1 sequence (P08575 whole entry): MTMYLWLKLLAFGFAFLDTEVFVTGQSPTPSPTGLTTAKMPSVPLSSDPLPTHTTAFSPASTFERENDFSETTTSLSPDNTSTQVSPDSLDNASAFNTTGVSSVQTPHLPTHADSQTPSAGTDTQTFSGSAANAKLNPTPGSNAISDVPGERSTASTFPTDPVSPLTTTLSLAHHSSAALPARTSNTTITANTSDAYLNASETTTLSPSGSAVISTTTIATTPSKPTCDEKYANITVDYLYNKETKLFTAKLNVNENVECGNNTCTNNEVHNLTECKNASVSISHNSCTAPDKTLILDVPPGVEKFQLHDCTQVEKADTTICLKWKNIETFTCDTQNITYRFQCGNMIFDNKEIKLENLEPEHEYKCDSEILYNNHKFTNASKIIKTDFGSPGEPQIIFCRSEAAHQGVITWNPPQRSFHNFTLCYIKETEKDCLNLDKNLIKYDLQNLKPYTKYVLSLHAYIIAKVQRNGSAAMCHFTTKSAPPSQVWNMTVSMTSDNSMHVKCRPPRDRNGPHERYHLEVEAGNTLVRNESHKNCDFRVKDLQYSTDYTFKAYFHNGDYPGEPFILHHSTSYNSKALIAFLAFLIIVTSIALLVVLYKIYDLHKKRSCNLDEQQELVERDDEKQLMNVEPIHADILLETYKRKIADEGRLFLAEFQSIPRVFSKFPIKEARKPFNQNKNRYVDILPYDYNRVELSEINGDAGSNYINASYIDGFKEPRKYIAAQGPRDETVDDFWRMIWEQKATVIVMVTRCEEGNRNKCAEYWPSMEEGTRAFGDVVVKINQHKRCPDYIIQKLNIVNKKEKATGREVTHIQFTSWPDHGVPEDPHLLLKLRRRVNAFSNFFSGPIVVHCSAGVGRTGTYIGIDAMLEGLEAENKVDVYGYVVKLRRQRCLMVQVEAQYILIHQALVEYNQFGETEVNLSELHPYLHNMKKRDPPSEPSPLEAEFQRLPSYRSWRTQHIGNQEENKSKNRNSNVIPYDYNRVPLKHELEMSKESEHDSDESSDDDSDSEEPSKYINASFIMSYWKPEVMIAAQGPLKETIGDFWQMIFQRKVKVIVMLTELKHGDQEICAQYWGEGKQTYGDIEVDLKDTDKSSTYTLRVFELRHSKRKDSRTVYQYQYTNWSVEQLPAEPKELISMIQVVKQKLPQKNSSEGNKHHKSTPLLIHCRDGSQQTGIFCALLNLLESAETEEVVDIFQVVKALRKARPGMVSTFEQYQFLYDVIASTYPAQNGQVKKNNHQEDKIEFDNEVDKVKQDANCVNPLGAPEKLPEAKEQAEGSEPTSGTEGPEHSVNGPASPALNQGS
Set-up: species or system Escherichia coli.

The target of the next data set is T2, Interstitial collagenase (Homo sapiens, UniProt P03956).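 Further: MMP-1 enzyme inhibition assay using a peptide substrate; in other assays of this panel Not Active means under 50% inhibition at 10 µM.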
T2 sequence (P03956 whole entry): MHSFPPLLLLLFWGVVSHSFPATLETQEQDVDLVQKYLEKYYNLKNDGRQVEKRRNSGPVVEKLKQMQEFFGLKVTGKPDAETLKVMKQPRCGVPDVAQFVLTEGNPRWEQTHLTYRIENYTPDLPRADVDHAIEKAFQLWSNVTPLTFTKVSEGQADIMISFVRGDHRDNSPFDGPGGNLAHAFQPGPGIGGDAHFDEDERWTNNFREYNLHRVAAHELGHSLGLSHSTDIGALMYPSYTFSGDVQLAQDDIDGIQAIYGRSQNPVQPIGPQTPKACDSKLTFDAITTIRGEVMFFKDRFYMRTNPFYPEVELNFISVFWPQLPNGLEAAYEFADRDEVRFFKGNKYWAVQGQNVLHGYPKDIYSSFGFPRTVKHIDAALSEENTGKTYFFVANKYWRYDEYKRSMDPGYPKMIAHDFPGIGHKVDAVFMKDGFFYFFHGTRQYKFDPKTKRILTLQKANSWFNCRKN
Put plainly: biochemical. The data set is classed as tissue-based, Rheumatoid synovial fibroblasts.

The target of another data set is Cytochrome P450 2C9 (Homo sapiens, UniProt P11712). As to conditions: bti-tn-5b1-4. Further: in other assays of this panel Not Active means under 50% inhibition at 10 µM.

Each structure is given as a SMILES string.

Mu-type opioid receptor, sequence (P35372 whole entry): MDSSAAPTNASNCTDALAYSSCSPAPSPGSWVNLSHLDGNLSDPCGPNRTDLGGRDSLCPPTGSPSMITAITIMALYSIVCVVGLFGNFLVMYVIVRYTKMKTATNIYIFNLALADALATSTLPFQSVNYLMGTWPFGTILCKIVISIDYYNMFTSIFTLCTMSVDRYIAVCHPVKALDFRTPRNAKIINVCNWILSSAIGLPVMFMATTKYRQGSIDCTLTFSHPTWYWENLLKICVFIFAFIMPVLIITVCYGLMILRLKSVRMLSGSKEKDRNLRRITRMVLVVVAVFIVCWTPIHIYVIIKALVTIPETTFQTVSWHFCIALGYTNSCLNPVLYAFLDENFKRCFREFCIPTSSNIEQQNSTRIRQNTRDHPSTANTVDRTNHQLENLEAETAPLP
D(3) dopamine receptor, sequence (P35462 whole entry): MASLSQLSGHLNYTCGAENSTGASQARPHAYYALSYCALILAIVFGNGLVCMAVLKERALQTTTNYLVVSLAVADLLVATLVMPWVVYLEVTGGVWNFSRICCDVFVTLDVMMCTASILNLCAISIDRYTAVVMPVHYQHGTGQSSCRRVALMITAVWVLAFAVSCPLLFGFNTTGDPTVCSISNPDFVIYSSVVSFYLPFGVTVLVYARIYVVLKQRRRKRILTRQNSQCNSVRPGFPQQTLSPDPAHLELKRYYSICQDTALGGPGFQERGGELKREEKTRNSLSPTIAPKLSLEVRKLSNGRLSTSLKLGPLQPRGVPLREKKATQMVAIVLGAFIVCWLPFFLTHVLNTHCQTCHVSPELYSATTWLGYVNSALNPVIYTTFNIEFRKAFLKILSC
Cytochrome P450 2C9, sequence (P11712 whole entry): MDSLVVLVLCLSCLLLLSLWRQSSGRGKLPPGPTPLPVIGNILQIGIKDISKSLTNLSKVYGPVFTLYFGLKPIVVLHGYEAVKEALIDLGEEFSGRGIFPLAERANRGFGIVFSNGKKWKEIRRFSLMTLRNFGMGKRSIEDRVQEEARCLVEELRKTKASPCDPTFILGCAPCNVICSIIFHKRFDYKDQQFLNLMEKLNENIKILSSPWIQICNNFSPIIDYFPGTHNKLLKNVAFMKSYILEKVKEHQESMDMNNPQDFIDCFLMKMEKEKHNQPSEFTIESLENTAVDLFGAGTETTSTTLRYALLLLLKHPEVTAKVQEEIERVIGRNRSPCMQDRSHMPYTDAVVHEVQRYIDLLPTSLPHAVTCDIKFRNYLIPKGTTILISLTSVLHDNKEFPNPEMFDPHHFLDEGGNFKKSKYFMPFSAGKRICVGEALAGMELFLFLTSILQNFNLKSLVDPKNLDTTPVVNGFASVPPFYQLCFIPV

One may read the IC50 as the midpoint of a concentration-inhibition curve. The Ki is the equilibrium dissociation constant of an inhibitor or competing ligand from its target. As for `COC(=O)Nc1nc2ccc([S+]([O-])c3ccccc3)cc2[nH]1` (stereo unspecified) [OXFENDAZOLE], the IC50 entry (at Mu-type opioid receptor; at D(3) dopamine receptor (cho); in data set [1]; in data set [2]; in data set [3]; against Interstitial collagenase) was “Not Active” each time. On Cytochrome P450 2C9, the IC50 result is recorded as “Not Active”. Also, the Ki result (in data set [1]; in data set [2]; at Cytochrome P450 2C9) was “Not Active” each time.

For `CCC1(C)CC(=O)NC1=O` (stereo unspecified) [ETHOSUXIMIDE], the IC50 entry (at Mu-type opioid receptor; at D(3) dopamine receptor (cho); in data set [1]; in data set [2]; in data set [3]; against Interstitial collagenase) was “Not Active” each time. Moreover, the IC50 entry at Cytochrome P450 2C9 is listed as “Not Active”. Also, the Ki entry (in data set [1]; in data set [2]; at Cytochrome P450 2C9) was “Not Active” each time.

In the case of `Brc1c(NC2=NCCN2)ccc2nccnc12` [BRIMONIDINE], the IC50 entry (on Mu-type opioid receptor; on D(3) dopamine receptor (cho); in data set [1]; in data set [2]; in data set [3]; on Interstitial collagenase) was “Not Active” throughout. Besides, the IC50 result on Cytochrome P450 2C9 is recorded as “Not Active”. The Ki result (in data set [1]; in data set [2]; at Cytochrome P450 2C9) was “Not Active” each time.

With `CC[C@H]1CN2CCc3cc(OC)c(OC)cc3[C@@H]2C[C@@H]1C[C@H]1NCCc2cc(OC)c(OC)cc21` [EMETINE], the IC50 result (at Mu-type opioid receptor; on D(3) dopamine receptor (cho); in data set [1]; in data set [2]; in data set [3]; at Interstitial collagenase) was “Not Active” throughout. Also, the IC50 entry on Cytochrome P450 2C9 is recorded as “Not Active”. The Ki result (in data set [1]; in data set [2]; on Cytochrome P450 2C9) was “Not Active” throughout.

As to `COC(=O)CCc1ccc(OCC(O)CNC(C)C)cc1` (stereo unspecified) [ESMOLOL], the 50% inhibitory concentration (IC50) entry (on Mu-type opioid receptor; on D(3) dopamine receptor (cho); in data set [1]; in data set [2]; in data set [3]; against Interstitial collagenase) was “Not Active” throughout. Moreover, the IC50 entry against Cytochrome P450 2C9 is “Not Active”. For the same compound, the Ki entry (in data set [1]; in data set [2]; on Cytochrome P450 2C9) was “Not Active” each time.

As to `COc1ccc(C(=O)N2CCCC2=O)cc1`, the IC50 result (on Mu-type opioid receptor; at D(3) dopamine receptor (cho); in data set [1]; in data set [2]; in data set [3]; on Interstitial collagenase) was “Not Active” each time. For the same compound, the IC50 entry on Cytochrome P450 2C9 was “Not Active”. The Ki result (in data set [1]; in data set [2]; at Cytochrome P450 2C9) was “Not Active” in each case.

Regarding `O=C(O)CCNC(=O)c1ccccc1` [BETAMIPRON], the IC50 result (at Mu-type opioid receptor; at D(3) dopamine receptor (cho); in data set [1]; in data set [2]; in data set [3]; against Interstitial collagenase) was “Not Active” in each case. Further, the IC50 entry against Cytochrome P450 2C9 is listed as “Not Active”. Further, the Ki result (in data set [1]; in data set [2]; on Cytochrome P450 2C9) was “Not Active” each time.

As to `O=c1cnn([C@@H]2O[C@H](CO)[C@@H](O)[C@H]2O)c(=O)[nH]1` [6-AZAURIDINE], the 50% inhibitory concentration (IC50) result (at Mu-type opioid receptor; at D(3) dopamine receptor (cho); in data set [1]; in data set [2]; in data set [3]; on Interstitial collagenase) was “Not Active” each time. The IC50 entry against Cytochrome P450 2C9 is listed as “Not Active”. For the same compound, the Ki entry (in data set [1]; in data set [2]; at Cytochrome P450 2C9) was “Not Active” each time.

In the case of `Cc1c(OCC(F)(F)F)ccnc1C[S+]([O-])c1nc2ccccc2[nH]1` (stereo unspecified) [LANSOPRAZOLE], the IC50 entry (at Mu-type opioid receptor; at D(3) dopamine receptor (cho); in data set [1]; in data set [2]; in data set [3]; on Interstitial collagenase) was “Not Active” each time. Further, the IC50 result against Cytochrome P450 2C9 is “Not Active”. The inhibition constant Ki entry (in data set [1]; in data set [2]; at Cytochrome P450 2C9) was “Not Active” in each case.

Regarding `C[C@@H]1C[C@H]2[C@@H]3CCC4=CC(=O)C=C[C@]4(C)[C@@]3(F)[C@@H](O)C[C@]2(C)[C@H]1C(=O)CO` [DESOXIMETASONE], the IC50 result (on Mu-type opioid receptor; on D(3) dopamine receptor (cho); in data set [1]; in data set [2]; in data set [3]; against Interstitial collagenase) was “Not Active” throughout. In addition, at Cytochrome P450 2C9, the IC50 entry is recorded as “Not Active”. In addition, the Ki entry (in data set [1]; in data set [2]; on Cytochrome P450 2C9) was “Not Active” throughout.

`O=c1cc(N2CCOCC2)oc2c(-c3ccccc3)cccc12` [LY-294002]: the half-inhibitory concentration (IC50) result (at Mu-type opioid receptor; at D(3) dopamine receptor (cho); in data set [1]; in data set [2]; in data set [3]; against Interstitial collagenase) was “Not Active” each time. Moreover, the IC50 result on Cytochrome P450 2C9 was “Not Active”. Further, the Ki result (in data set [1]; in data set [2]; on Cytochrome P450 2C9) was “Not Active” each time.

Take `COc1cc(N)c(Cl)cc1C(=O)NC1CCN(CCCOc2ccc(F)cc2)CC1OC` (stereo unspecified) [CISAPRIDE]: the IC50 result on Mu-type opioid receptor was “Not Active”; at D(3) dopamine receptor (read-out: IC50), 144 nM; in data set [1], “Not Active”; in data set [2] it was “Not Active”; in data set [3] it was “Not Active”; on Interstitial collagenase, “Not Active”. Further, on Cytochrome P450 2C9, the IC50 entry is “Not Active”. In addition, the Ki on D(3) dopamine receptor (read-out: Ki) is 49 nM; in data set [1], “Not Active”; in data set [2] it was “Not Active”; at Cytochrome P450 2C9 it was “Not Active”.

Take `N=C(N)NC(=O)Cc1c(Cl)cccc1Cl` [GUANFACINE]: the IC50 entry (on Mu-type opioid receptor; at D(3) dopamine receptor (cho); in data set [1]; in data set [2]; in data set [3]; at Interstitial collagenase) was “Not Active” in each case. Besides, the IC50 result on Cytochrome P450 2C9 is recorded as “Not Active”. Also, the Ki entry (in data set [1]; in data set [2]; on Cytochrome P450 2C9) was “Not Active” throughout.

Consider `NC(=O)C[S+]([O-])C(c1ccccc1)c1ccccc1` (stereo unspecified) [MODAFINIL], for which the IC50 result (at Mu-type opioid receptor; at D(3) dopamine receptor (cho); in data set [1]; in data set [2]; in data set [3]; against Interstitial collagenase) was “Not Active” each time. For the same compound, the IC50 result against Cytochrome P450 2C9 is given as “Not Active”. The Ki entry (in data set [1]; in data set [2]; at Cytochrome P450 2C9) was “Not Active” in each case.

For `CC(C)NNC(=O)c1ccncc1` [IPRONIAZID], the IC50 entry (on Mu-type opioid receptor; on D(3) dopamine receptor (cho); in data set [1]; in data set [2]; in data set [3]; at Interstitial collagenase) was “Not Active” each time. For the same compound, the IC50 entry against Cytochrome P450 2C9 is reported as “Not Active”. The inhibitory constant (Ki) result (in data set [1]; in data set [2]; on Cytochrome P450 2C9) was “Not Active” in each case.
